# How the values were obtained:
# Drosophila OR49b = molecular target: T1, Drosophila OR49b (Drosophila melanogaster, UniProt Q9V6H2); experiment: cell-based; conditions: for OR49b response (VUAA1-normalized) at 1 μM / OR49b response (VUAA1-normalized) at 10 μM / OR49b response (VUAA1-normalized) at 100 μM / Average response: OR49b cell line; for OR49b response (VUAA1-normalized) at 1 μM: VOC concentration 1 μM; for OR49b response (VUAA1-normalized) at 10 μM: VOC concentration 10 μM; for OR49b response (VUAA1-normalized) at 100 μM: VOC concentration 100 μM; for Average response: mean of biological replicates; for DF norm AVERAGE OR49b: threshold 0.05, below shown as 0; for activation at 1 µM / activation at 10 µM / activation at 100 µM: HEK293, 50 μM VUAA1 = 1, read-out: OR49b Average response (VUAA1-normalized); for activation at 1 µM: 1 μM VOC; for activation at 10 µM: 10 μM VOC; for activation at 100 µM: 100 μM VOC
# T1 construct: expressed in transfected cells
# T1 sequence (Q9V6H2 1-375): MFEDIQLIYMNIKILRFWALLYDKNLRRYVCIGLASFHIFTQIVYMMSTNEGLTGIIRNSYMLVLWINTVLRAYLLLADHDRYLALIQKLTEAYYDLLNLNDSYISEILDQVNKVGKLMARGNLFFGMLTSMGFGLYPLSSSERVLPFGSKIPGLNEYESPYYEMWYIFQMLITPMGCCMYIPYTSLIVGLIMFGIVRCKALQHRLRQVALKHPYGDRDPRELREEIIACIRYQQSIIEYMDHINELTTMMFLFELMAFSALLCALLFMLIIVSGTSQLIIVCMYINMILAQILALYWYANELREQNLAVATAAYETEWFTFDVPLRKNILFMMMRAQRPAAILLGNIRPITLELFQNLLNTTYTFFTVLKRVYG
# T1 sequence (Q9VNB5 1-486 partner): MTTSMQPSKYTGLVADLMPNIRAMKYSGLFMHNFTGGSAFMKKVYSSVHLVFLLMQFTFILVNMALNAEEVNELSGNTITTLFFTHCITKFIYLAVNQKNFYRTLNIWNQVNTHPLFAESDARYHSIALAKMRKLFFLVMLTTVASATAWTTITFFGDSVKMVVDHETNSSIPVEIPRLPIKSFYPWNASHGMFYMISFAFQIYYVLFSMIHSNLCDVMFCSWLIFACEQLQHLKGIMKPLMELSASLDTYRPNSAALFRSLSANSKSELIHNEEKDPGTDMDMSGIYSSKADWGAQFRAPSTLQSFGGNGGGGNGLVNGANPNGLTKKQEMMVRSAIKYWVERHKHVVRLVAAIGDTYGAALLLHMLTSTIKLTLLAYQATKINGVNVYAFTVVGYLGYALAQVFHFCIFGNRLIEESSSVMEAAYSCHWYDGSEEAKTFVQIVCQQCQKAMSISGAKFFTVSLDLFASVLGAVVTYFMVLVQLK
# Summary of the method: (§1)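 Responses are VUAA1-normalized ΔF: each VOC-evoked calcium signal, (FMAX−F0)/F0 over 30 s after injection, divided by the same line's mean 50 µM VUAA1 response. Cells were doxycycline-induced HEK293 with GCaMP6 and the cognate Drosophila OR, in HEPES buffer pH 7.3; ligands tested 0.01–100 μM.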
# Drosophila OR98a = molecular target: T2, Drosophila OR98a (Drosophila melanogaster, UniProt Q9VAZ3); experiment: Calcium ion fluorescence (GCaMP6) assay, OR98a stable HEK293 cell line; format: cell-based; conditions: for activation at 1 µM / activation at 10 µM / activation at 100 µM: HEK293, read-out: Average response; for OR98a response (VUAA1-normalized) at 1 μM / OR98a response (VUAA1-normalized) at 10 μM / OR98a response (VUAA1-normalized) at 100 μM: OR98a cell line; for OR98a response (VUAA1-normalized) at 1 μM: VOC concentration 1 μM; for OR98a response (VUAA1-normalized) at 10 μM: VOC concentration 10 μM; for OR98a response (VUAA1-normalized) at 100 μM: VOC concentration 100 μM; for DF norm AVERAGE OR98a: threshold 0.05, below shown as 0
# T2 construct: expressed in transfected cells
# T2 sequence (Q9VAZ3 1-397): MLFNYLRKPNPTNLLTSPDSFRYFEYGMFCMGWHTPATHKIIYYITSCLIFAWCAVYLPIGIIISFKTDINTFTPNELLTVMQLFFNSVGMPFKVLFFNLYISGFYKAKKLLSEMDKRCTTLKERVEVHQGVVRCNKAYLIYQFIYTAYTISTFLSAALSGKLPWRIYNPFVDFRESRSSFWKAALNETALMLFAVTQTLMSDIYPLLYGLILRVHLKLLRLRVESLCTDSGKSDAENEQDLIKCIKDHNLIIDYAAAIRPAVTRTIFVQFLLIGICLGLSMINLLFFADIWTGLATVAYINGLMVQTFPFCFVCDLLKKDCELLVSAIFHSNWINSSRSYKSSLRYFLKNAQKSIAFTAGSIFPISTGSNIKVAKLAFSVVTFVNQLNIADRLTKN
# T2 sequence (Q9VNB5 1-486 partner): T1 sequence (Q9VNB5 1-486 partner)
# Summary of the method: as §1
# [1] = ligand concentration 1 (unit not given)
# [2] = ligand concentration 10 (unit not given)
# [3] = ligand concentration 100 (unit not given)
compound,measurement,setting,value
CCCCCCCCC=O [nonanal],OR49b response (VUAA1-normalized) at 1 μM,Drosophila OR49b,0.00
same,OR49b response (VUAA1-normalized) at 10 μM,Drosophila OR49b,0.00
same,OR49b response (VUAA1-normalized) at 100 μM,Drosophila OR49b,0.00
same,Average response,Drosophila OR49b; odorant cc. 1 µM,0.00
same,Average response,Drosophila OR49b; odorant cc. 10 µM,0.00
same,Average response,Drosophila OR49b; odorant cc. 100 µM,0.00
same,DF norm AVERAGE OR49b,Drosophila OR49b; [1],0
same,DF norm AVERAGE OR49b,Drosophila OR49b; [2],0
same,DF norm AVERAGE OR49b,Drosophila OR49b; [3],0
same,activation at 1 µM,Drosophila OR98a,0%
same,activation at 10 µM,Drosophila OR98a,0%
same,activation at 100 µM,Drosophila OR98a,5.5%
same,OR98a response (VUAA1-normalized) at 1 μM,Drosophila OR98a,0.00
same,OR98a response (VUAA1-normalized) at 10 μM,Drosophila OR98a,0.00
same,OR98a response (VUAA1-normalized) at 100 μM,Drosophila OR98a,0.055
same,DF norm AVERAGE OR98a,Drosophila OR98a; [1],0
same,DF norm AVERAGE OR98a,Drosophila OR98a; [2],0
same,DF norm AVERAGE OR98a,Drosophila OR98a; [3],0.05502
Cc1ccccc1C [o-xylene],activation at 1 µM,Drosophila OR49b,0%
same,activation at 10 µM,Drosophila OR49b,9%
same,activation at 100 µM,Drosophila OR49b,64%
same,OR49b response (VUAA1-normalized) at 1 μM,Drosophila OR49b,0.00
same,OR49b response (VUAA1-normalized) at 10 μM,Drosophila OR49b,0.09
same,OR49b response (VUAA1-normalized) at 100 μM,Drosophila OR49b,0.64
same,Average response,Drosophila OR49b; odorant cc. 1 µM,0.00
same,Average response,Drosophila OR49b; odorant cc. 10 µM,0.09
same,Average response,Drosophila OR49b; odorant cc. 100 µM,0.64
same,DF norm AVERAGE OR49b,Drosophila OR49b; [1],0
same,DF norm AVERAGE OR49b,Drosophila OR49b; [2],0.08728
same,DF norm AVERAGE OR49b,Drosophila OR49b; [3],0.6438
same,activation at 1 µM,Drosophila OR98a,0%
same,activation at 10 µM,Drosophila OR98a,0%
same,activation at 100 µM,Drosophila OR98a,0%
same,OR98a response (VUAA1-normalized) at 1 μM,Drosophila OR98a,0.00
same,OR98a response (VUAA1-normalized) at 10 μM,Drosophila OR98a,0.00
same,OR98a response (VUAA1-normalized) at 100 μM,Drosophila OR98a,0.00
same,DF norm AVERAGE OR98a,Drosophila OR98a; [1],0
same,DF norm AVERAGE OR98a,Drosophila OR98a; [2],0
same,DF norm AVERAGE OR98a,Drosophila OR98a; [3],0
Cc1ccc(C(C)C)cc1 [p-cymene],OR49b response (VUAA1-normalized) at 1 μM,Drosophila OR49b,0.00
same,OR49b response (VUAA1-normalized) at 10 μM,Drosophila OR49b,0.00
same,OR49b response (VUAA1-normalized) at 100 μM,Drosophila OR49b,0.00
same,Average response,Drosophila OR49b; odorant cc. 1 µM,0.00
same,Average response,Drosophila OR49b; odorant cc. 10 µM,0.00
same,Average response,Drosophila OR49b; odorant cc. 100 µM,0.00
same,DF norm AVERAGE OR49b,Drosophila OR49b; [1],0
same,DF norm AVERAGE OR49b,Drosophila OR49b; [2],0
same,DF norm AVERAGE OR49b,Drosophila OR49b; [3],0
same,activation at 1 µM,Drosophila OR98a,0%
same,activation at 10 µM,Drosophila OR98a,4%
same,activation at 100 µM,Drosophila OR98a,3.65%
same,OR98a response (VUAA1-normalized) at 1 μM,Drosophila OR98a,0.00
same,OR98a response (VUAA1-normalized) at 10 μM,Drosophila OR98a,0.00
same,OR98a response (VUAA1-normalized) at 100 μM,Drosophila OR98a,0.00
same,DF norm AVERAGE OR98a,Drosophila OR98a; [1],0
same,DF norm AVERAGE OR98a,Drosophila OR98a; [2],0
same,DF norm AVERAGE OR98a,Drosophila OR98a; [3],0
Cc1ccc(C)cc1 [p-xylene],activation at 1 µM,Drosophila OR49b,0%
same,activation at 10 µM,Drosophila OR49b,3%
same,activation at 100 µM,Drosophila OR49b,38%
same,OR49b response (VUAA1-normalized) at 1 μM,Drosophila OR49b,0.00
same,OR49b response (VUAA1-normalized) at 10 μM,Drosophila OR49b,0.00
same,OR49b response (VUAA1-normalized) at 100 μM,Drosophila OR49b,0.38
same,Average response,Drosophila OR49b; odorant cc. 1 µM,0.00
same,Average response,Drosophila OR49b; odorant cc. 10 µM,0.033
same,Average response,Drosophila OR49b; odorant cc. 100 µM,0.38
same,DF norm AVERAGE OR49b,Drosophila OR49b; [1],0
same,DF norm AVERAGE OR49b,Drosophila OR49b; [2],0
same,DF norm AVERAGE OR49b,Drosophila OR49b; [3],0.379
same,activation at 1 µM,Drosophila OR98a,0%
same,activation at 10 µM,Drosophila OR98a,2.51%
same,activation at 100 µM,Drosophila OR98a,4%
same,OR98a response (VUAA1-normalized) at 1 μM,Drosophila OR98a,0.00
same,OR98a response (VUAA1-normalized) at 10 μM,Drosophila OR98a,0.00
same,OR98a response (VUAA1-normalized) at 100 μM,Drosophila OR98a,0.00
same,DF norm AVERAGE OR98a,Drosophila OR98a; [1],0
same,DF norm AVERAGE OR98a,Drosophila OR98a; [2],0
same,DF norm AVERAGE OR98a,Drosophila OR98a; [3],0

# From PMC10709440, “High-throughput ligand profile characterization in novel cell lines expressing seven heterologous insect olfactory receptors for the detection of volatile plant biomarkers” (Scientific Reports, 2023)
